Measured values published in patent publication US20250154144A1 (CHILDREN'S HOSPITAL MEDICAL CENTER, priority 2021, published 2025).
Read-outs that look alike come from different tables or passages of the source.

Assays:
[1] = test system: MOLM14(D835Y) cells; type: cell-based; conditions: MOLM14(D835Y) cells; for Excess HSA Score: 10 × 10
[2] = biological target: T1, FLT3 D835Y (Homo sapiens, UniProt P36888, D835Y); assay: DiscoverX KINOMEscan competition binding, FLT3 D835Y
T1 construct: purchased DiscoverX (KINOMEscan)
T1 sequence (P36888 27-993 D835Y): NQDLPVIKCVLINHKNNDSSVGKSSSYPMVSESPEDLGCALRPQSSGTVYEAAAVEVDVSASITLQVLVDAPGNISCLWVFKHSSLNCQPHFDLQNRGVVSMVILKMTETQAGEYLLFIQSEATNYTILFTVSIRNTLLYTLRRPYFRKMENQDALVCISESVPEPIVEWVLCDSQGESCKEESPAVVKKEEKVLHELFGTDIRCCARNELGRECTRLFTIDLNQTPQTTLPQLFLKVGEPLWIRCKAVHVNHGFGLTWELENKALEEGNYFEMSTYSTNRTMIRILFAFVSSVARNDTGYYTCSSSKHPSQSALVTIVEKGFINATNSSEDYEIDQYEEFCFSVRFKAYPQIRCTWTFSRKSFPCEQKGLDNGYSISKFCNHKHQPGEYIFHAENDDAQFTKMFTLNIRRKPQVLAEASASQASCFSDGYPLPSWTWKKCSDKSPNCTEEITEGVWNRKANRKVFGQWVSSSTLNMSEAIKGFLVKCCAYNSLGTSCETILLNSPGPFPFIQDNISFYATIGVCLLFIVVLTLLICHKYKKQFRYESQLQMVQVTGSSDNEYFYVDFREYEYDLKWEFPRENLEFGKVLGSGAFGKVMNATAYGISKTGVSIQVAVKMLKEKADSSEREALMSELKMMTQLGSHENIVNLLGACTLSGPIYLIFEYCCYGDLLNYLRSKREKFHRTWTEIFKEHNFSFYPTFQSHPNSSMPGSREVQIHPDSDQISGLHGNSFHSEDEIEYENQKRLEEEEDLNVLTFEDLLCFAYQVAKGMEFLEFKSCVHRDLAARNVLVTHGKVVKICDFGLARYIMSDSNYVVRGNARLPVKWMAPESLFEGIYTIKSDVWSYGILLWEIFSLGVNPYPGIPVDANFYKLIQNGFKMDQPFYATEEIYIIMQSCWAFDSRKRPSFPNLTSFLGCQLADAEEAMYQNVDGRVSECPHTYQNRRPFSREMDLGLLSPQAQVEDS

[3] = test system: THP1 cells; assay: Combination drug screening, Cell Titer Glo, 10 × 10 matrix, THP1 cells; type: cell-based; conditions: THP1 cells; for Excess HSA Score: 10 × 10
[4] = combination with (+)-BAY-1251152
[5] = combination with Eprenetapopt/APR-246
[6] = combination with Venetoclax (ABT-199)

## F[C@H]1CCNC[C@@H]1Nc1cncc(-c2cnc3cc(OC4CC4)ccn23)n1 [Compound 12, 6-(7-cyclopropoxyimidazo[1,2-a]pyridin-3-yl)-N-((3S,4S)-4-fluoropiperidin-3-yl)pyrazin-2-amine]
[1]; [4]
  Excess HSA Score: −346.5
[1]; combination with AMG-232
  Excess HSA Score: −464.9
[1]; combination with AZD-5363
  Excess HSA Score: −869.6
[1]; [5]
  Excess HSA Score: 381.9
[1]; combination with Ivosidenib
  Excess HSA Score: −10.93
[1]; combination with Lenalidomide
  Excess HSA Score: 176.4
  Comments: Antagonistic
[1]; combination with Palbociclib
  Excess HSA Score: −72.57
[1]; combination with Prednisolone
  Excess HSA Score: 908.8
[1]; combination with SNDX-5613
  Excess HSA Score: −187.4
[1]; combination with TNO-155
  Excess HSA Score: −906.9
[1]; combination with Trametinib
  Excess HSA Score: −87.67
[1]; combination with Ulixertinib
  Excess HSA Score: 256.8
[1]; [6]
  Excess HSA Score: −1232.2388
  Comments: Synergistic
[2]
  Kd: 1.1 nM
[3]; [4]
  Excess HSA Score: −730.8
[3]; combination with AMG-232
  Excess HSA Score: −0.2304
  Comments: Additive
[3]; combination with AZD-5363
  Excess HSA Score: −798.3
[3]; [5]
  Excess HSA Score: 477.7
[3]; combination with Ivosidenib
  Excess HSA Score: −53.98
[3]; combination with Lenalidomide
  Excess HSA Score: −72.51
[3]; combination with Palbociclib
  Excess HSA Score: 575.5
[3]; combination with Prednisolone
  Excess HSA Score: −176.7
[3]; combination with SNDX-5613
  Excess HSA Score: 75.74
  Comments: Antagonistic
[3]; combination with TNO-155
  Excess HSA Score: −498.7
[3]; combination with Trametinib
  Excess HSA Score: 300.014
[3]; combination with Ulixertinib
  Excess HSA Score: −95.31
[3]; [6]
  Excess HSA Score: −1564
  Comments: Synergistic
